In patent publication US8791123B2, “Substituted pyrazolo[1,5-a]pyrimidine compounds as Trk kinase inhibitors” (Array Biopharma, Inc., priority 2009, dated 2014):
Counter-ions that a name gives are not always drawn. Like-named read-outs stand apart in the source and are kept apart here.

What was measured:
[1] = biological target: TrkA (histidine-tagged recombinant human TrkA, cytoplasmic domain) (Homo sapiens (Human), UniProt P04629); experiment: TrkA ELISA Assay; format: biochemical; details: Table 1; ELISA, 500 μM ATP; read-out: TrkA Enzyme IC50
Description: An enzyme-linked immunosorbant assay (ELISA) was used to assess TrkA kinase activity in the presence of inhibitors. Immulon 4HBX 384-well microtiter plates (Thermo part #8755) were coated with a 0.025 mg/mL solution of poly (Glu, Ala, Tyr; 6:3:1; Sigma P3899). […] The reaction mixture was removed from the plate by washing with PBS containing 0.1% (v/v) Tween 20. The phosphorylated reaction product was detected using 0.2 μg/mL of a phosphotyrosine specific monoclonal antibody (clone PY20) conjugated to horseradish peroxidase in conjunction with the TMB Peroxidase Substrate System (KPL). After the addition of 1M phosphoric acid, the chromogenic substrate color intensity was quantitated via absorbance at 450 nm.

[2] = biological target: Human Jak2 kinase domain (Homo sapiens (Human), UniProt O60674); experiment: Jak2 Inhibition Assay (Omnia kinase assay); format: biochemical; details: for IC50: read-out: Jak2 Enzyme IC50; for Jak2 Enzyme (% inhibition at 1000 nM): 1000 nM test compound
Description: The assays described in Examples C, D, E and F for the determination of JAK1, JAK2, JAK3 and Tyk2 kinase activity, respectively, utilized the Omnia® Kinase fluorescence peptide substrate-based technology (Invitrogen). […] The reactions were therefore read at excitation 360 nm and emission was measured at 485 nm every 50 seconds for 45 minutes using a PerkinElmer EnVision Multilabel Plate Reader.
The final buffer conditions for each of the JAK1, JAK2, JAK3 and Tyk2 assays were as follows: 25 mM HEPES, pH 7.4, 10 mM MgCl2, 0.01% Triton X-100 and 1 mM DTT.
Two-μL aliquots of these were transferred to a fresh plate for a ten-fold intermediate dilution with assay buffer. Five-μL aliquots of the diluted compounds were then transferred to 20-μL of assay mixtures described in Examples C, D, E and F for a final concentration of DMSO of 2%. […] For each plate, percent of control (POC) values were calculated for each well according to the following equation:
[formula] • where • Xmax=Average Uninhibited Controls • Xmin=Average Background IC50's were estimated from the POC's using a standard 4-parameter logistic model:
[formula] • where • A=Minimum Y (Bottom Asymptote) • B=Maximum Y (Top Asymptote) • C=EC50 • D=Slope Factor • X=Compound Concentration (nM) • Y=POC
The IC50 is defined as the concentration of inhibitor at which the POC equals 50 for the fitted curve.
Compounds of Formula I were screened for their ability to inhibit Jak2 using the general enzyme inhibition assay method, in which the assay mixture contained 500 μM ATP, 10 μM Omnia® Y7 peptide (Catalog # IVGN KNZ3071C, Invitrogen Corporation, Carlsbad, Calif.) and 4 nM Jak2 in a total volume of 20 μL. Human Jak2 kinase domain comprising amino acids 808-1132 was purchased from Invitrogen Corporation, Carlsbad, Calif. (catalog # IVGN PV4210).

[3] = Table 1, 500 μM ATP, >1000 nM when >50% inhibition not observed at 1000 nM

Human Jak2 kinase domain, sequence (O60674 808-1132): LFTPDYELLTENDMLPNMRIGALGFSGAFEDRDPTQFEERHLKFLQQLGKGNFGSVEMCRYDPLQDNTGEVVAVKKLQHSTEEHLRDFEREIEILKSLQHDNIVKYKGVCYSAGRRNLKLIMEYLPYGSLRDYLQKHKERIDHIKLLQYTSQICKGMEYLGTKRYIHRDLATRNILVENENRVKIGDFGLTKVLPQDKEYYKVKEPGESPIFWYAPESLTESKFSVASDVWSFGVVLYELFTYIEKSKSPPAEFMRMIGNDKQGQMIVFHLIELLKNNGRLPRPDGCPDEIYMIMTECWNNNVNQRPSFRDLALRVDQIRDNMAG
TrkA (histidine-tagged recombinant human TrkA, cytoplasmic domain), sequence (P04629 440-796): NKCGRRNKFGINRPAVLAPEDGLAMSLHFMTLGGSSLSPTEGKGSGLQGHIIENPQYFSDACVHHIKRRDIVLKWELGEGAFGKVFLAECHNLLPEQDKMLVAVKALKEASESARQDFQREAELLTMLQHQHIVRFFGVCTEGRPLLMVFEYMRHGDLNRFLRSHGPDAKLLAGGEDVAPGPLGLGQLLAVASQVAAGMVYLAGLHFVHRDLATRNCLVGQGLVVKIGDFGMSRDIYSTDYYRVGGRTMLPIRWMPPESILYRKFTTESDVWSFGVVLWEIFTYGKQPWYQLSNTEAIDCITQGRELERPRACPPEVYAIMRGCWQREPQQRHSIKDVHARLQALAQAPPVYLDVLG

| Structure (SMILES) | IC50 [1] [nM] | IC50 [2, 3] [nM] | IC50 [2] [nM] | Jak2 Enzyme (% inhibition at 1000 nM) ([2]; Table 1) |
| --- | --- | --- | --- | --- |
| CONC(=O)c1cnn2ccc(N3CCC[C@@H]3c3cncc(F)c3)nc12 [Example 73, (R)-5-(2-(5-fluoropyridin-3-yl)pyrrolidin-1-yl)-N-methoxypyrazolo[1,5-a]pyrimidine-3-carboxamide] | 48.5 | > 1000 |  |  |
| O=C(N[C@@H]1CCNC[C@@H]1F)c1cnn2ccc(N3CCC[C@@H]3c3cc(F)ccc3F)nc12 [Example 61, 5-((R)-2-(2,5-difluorophenyl)pyrrolidin-1-yl)-N-((3S,4R)-3-fluoropiperidin-4-yl)pyrazolo[1,5-a]pyrimidine-3-carboxamide hydrochloride] | 1.95 |  | 699 |  |
| O=C(N[C@H]1CC[C@@H](O)CC1)c1cnn2ccc(N3CCC[C@@H]3c3cncc(F)c3)nc12 [Example 100, 5-((R)-2-(5-fluoropyridin-3-yl)pyrrolidin-1-yl)-N-((cis)-4-hydroxycyclohexyl)pyrazolo[1,5-a]pyrimidine-3-carboxamide] |  |  |  | (13.8) % |
| COc1ncc(F)cc1[C@H]1CCCN1c1ccn2ncc(C(=O)NC[C@H](C)O)c2n1 [Example 156, 5-((R)-2-(5-fluoro-2-methoxypyridin-3-yl)pyrrolidin-1-yl)-N-((S)-2-hydroxypropyl)pyrazolo[1,5-a]pyrimidine-3-carboxamide] | 2.1 | > 1000 |  |  |
| CC[C@@H](CO)NC(=O)c1cnn2ccc(N3CCC[C@@H]3c3cc(F)ccc3F)nc12 [Example 178, 5-((R)-2-(2,5-difluorophenyl)pyrrolidin-1-yl)-N-((S)-1-hydroxybutan-2-yl)pyrazolo[1,5-a]pyrimidine-3-carboxamide] | 2.5 | > 1000 |  |  |
| Cn1ccc(NC(=O)c2cnn3ccc(N4CCC[C@@H]4c4cc(F)ccc4F)nc23)n1 [Example 6, (R)-5-(2-(2,5-difluorophenyl)pyrrolidin-1-yl)-N-(1-methyl-1H-pyrazol-3-yl)pyrazolo[1,5-a]pyrimidine-3-carboxamide] | 1.55 | > 1000 |  |  |
| CC(C)(CF)NC(=O)c1cnn2ccc(N3CCC[C@@H]3c3cc(F)ccc3F)nc12 [Example 40, (R)-5-(2-(2,5-difluorophenyl)pyrrolidin-1-yl)-N-(1-fluoro-2-methylpropan-2-yl)pyrazolo[1,5-a]pyrimidine-3-carboxamide] | 0.8 | > 1000 |  |  |
| CC(C)(C)NC(=O)c1cnn2ccc(N3CCC[C@@H]3c3cc(F)ccc3F)nc12 [Example 1, (R)—N-tert-butyl-5-(2-(2,5-difluorophenyl)pyrrolidin-1-yl)pyrazolo[1,5-a]pyrimidine-3-carboxamide] | 0.7 | > 1000 |  |  |
| O=C(c1cnn2ccc(N3CCC[C@@H]3c3cc(F)ccc3F)nc12)N1CC[C@@H](O)C1 [Example 19, (5-((R)-2-(2,5-difluorophenyl)pyrrolidin-1-yl)pyrazolo[1,5-a]pyrimidin-3-yl)((R)-3-hydroxypyrrolidin-1-yl)methanone] | 74.2 | > 1000 |  |  |
| COCCNC(=O)c1cnn2ccc(N3CCC[C@@H]3c3cc(F)ccc3F)nc12 [Example 172, 5-((R)-2-(2,5-difluorophenyl)pyrrolidin-1-yl)-N-(2-methoxyethyl)pyrazolo[1,5-a]pyrimidine-3-carboxamide] | 2.5 | > 1000 |  |  |
| COc1ncc(F)cc1[C@H]1CCCN1c1ccn2ncc(C(=O)N[C@H]3CC[C@H](O)C3)c2n1 [Example 154, 5-((R)-2-(5-fluoro-2-methoxypyridin-3-yl)pyrrolidin-1-yl)-N-((1S,3S)-3-hydroxycyclopentyl)pyrazolo[1,5-a]pyrimidine-3-carboxamide] | 1.3 | 524 |  |  |
| O=C(NCCN1CCNC1=O)c1cnn2ccc(N3CCC[C@@H]3c3cc(F)ccc3F)nc12 [Example 24, (R)-5-(2-(2,5-difluorophenyl)pyrrolidin-1-yl)-N-(2-(2-oxoimidazolidin-1-yl)ethyl) pyrazole[1,5-a]pyrimidine-3-carboxamide] | 3.6 | > 1000 |  |  |
| COc1ncc(F)cc1[C@H]1CCCN1c1ccn2ncc(C(=O)NCCCCO)c2n1 [Example 151, (R)-5-(2-(5-fluoro-2-methoxypyridin-3-yl)pyrrolidin-1-yl)-N-(4-hydroxybutyl)pyrazolo[1,5-a]pyrimidine-3-carboxamide] | 1.4 | > 1000 |  |  |
| CC(C)(C)[C@@H](CO)NC(=O)c1cnn2ccc(N3CCC[C@@H]3c3cc(F)ccc3F)nc12 [Example 180, 5-((R)-2-(2,5-difluorophenyl)pyrrolidin-1-yl)-N-((S)-1-hydroxy-3,3-dimethylbutan-2-yl)pyrazolo[1,5-a]pyrimidine-3-carboxamide] | 12.3 | > 1000 |  |  |
| Cn1cc(F)cc([C@H]2CCCN2c2ccn3ncc(C(=O)NC4CCC4)c3n2)c1=O [Example 230, (R)-N-cyclobutyl-5-(2-(5-fluoro-1-methyl-2-oxo-1,2-dihydropyridin-3-yl)pyrrolidin-1-yl)pyrazolo[1,5-a]pyrimidine-3-carboxamide] | 3 | 666 |  |  |
| O=C(NC1(CO)CC1)c1cnn2ccc(N3CCC[C@@H]3c3cncc(F)c3)nc12 [Example 107, (R)-5-(2-(5-fluoropyridin-3-yl)pyrrolidin-1-yl)-N-(1-(hydroxymethyl)cyclopropyl)pyrazolo[1,5-a]pyrimidine-3-carboxamide] | 16.4 | > 1000 |  |  |
| O=C(NC1CCC[C@@H]1O)c1cnn2ccc(N3CCCC3c3cncc(F)c3)nc12 (stereo partly drawn) [Example 120, 5-((R)-2-(5-fluoropyridin-3-yl)pyrrolidin-1-yl)-N-((trans)-2-hydroxycyclopentyl)pyrazolo[1,5-a]pyrimidine-3-carboxamide] | 22.8 | > 1000 |  |  |
| Cc1ncc(F)cc1[C@H]1CCCN1c1ccn2ncc(C(=O)NC(C)C)c2n1 [Example 184, (R)-5-(2-(5-fluoro-2-methylpyridin-3-yl)pyrrolidin-1-yl)-N-isopropylpyrazolo[1,5-a]pyrimidine-3-carboxamide] | 7.4 | > 1000 |  |  |
| CNC(=O)c1cnn2ccc(N3CCC[C@@H]3c3cc(F)ccc3F)nc12 [Example 10, (R)-5-(2-(2,5-difluorophenyl)pyrrolidin-1-yl)-N-methylpyrazolo[1,5-a]pyrimidine-3-carboxamide] | 1.05 | > 1000 |  |  |
| COc1ncc(F)cc1[C@H]1CCCN1c1ccn2ncc(C(=O)Nc3cc(C4CC4)n[nH]3)c2n1 [Example 242, (R)-N-(3-cyclopropyl-1H-pyrazol-5-yl)-5-(2-(5-fluoro-2-methoxypyridin-3-yl)pyrrolidin-1-yl)pyrazolo[1,5-a]pyrimidine-3-carboxamide] | 8.9 |  |  |  |
| O=C(NCCN1CCC(O)CC1)c1cnn2ccc(N3CCC[C@@H]3c3cc(F)ccc3F)nc12 [Example 170, 5-((R)-2-(2,5-difluorophenyl)pyrrolidin-1-yl)-N-(2-(4-hydroxypiperidin-1-yl)ethyl)pyrazolo[1,5-a]pyrimidine-3-carboxamide] |  | > 1000 |  |  |
| COc1ncc(F)cc1[C@H]1CCCN1c1ccn2ncc(C(=O)Nc3ccn(C)n3)c2n1 [Example 241, (R)-5-(2-(5-fluoro-2-methoxypyridin-3-yl)pyrrolidin-1-yl)-N-(1-methyl-1H-pyrazol-3-yl)pyrazolo[1,5-a]pyrimidine-3-carboxamide] | 21.8 |  |  |  |
| COc1ncc(F)cc1[C@H]1CCCN1c1ccn2ncc(C(=O)Nc3ccn(C(C)C)n3)c2n1 [Example 244, (R)-5-(2-(5-fluoro-2-methoxypyridin-3-yl)pyrrolidin-1-yl)-N-(1-isopropyl-1H-pyrazol-3-yl)pyrazolo[1,5-a]pyrimidine-3-carboxamide] | 38.2 |  |  |  |
| COc1ncc(F)cc1[C@H]1CCCN1c1ccn2ncc(C(=O)Nc3cc(C)n[nH]3)c2n1 [Example 240, (R)-5-(2-(5-fluoro-2-methoxypyridin-3-yl)pyrrolidin-1-yl)-N-(3-methyl-1H-pyrazol-5-yl)pyrazolo[1,5-a]pyrimidine-3-carboxamide] | 11.3 |  |  |  |
| Cc1ncc(F)cc1[C@H]1CCCN1c1ccn2ncc(C(=O)N[C@H]3CC[C@@H](O)CC3)c2n1 [Example 195, 5-((R)-2-(5-fluoro-2-methylpyridin-3-yl)pyrrolidin-1-yl)-N-((cis)-4-hydroxycyclohexyl)pyrazolo[1,5-a]pyrimidine-3-carboxamide] |  |  |  | (16.2) % |
